Reference: patent US7648989B2, “Indolylmaleimide derivatives as PKC inhibitors” (Novartis AG, priority 2004, dated 2010)

Assays:
[1] = test system: spleen cells from CBA and BALB/c mice (MLR); bone marrow cells from CBA mice (BM); assay: Allogeneic Mixed Lymphocyte Reaction (MLR) assay compared with Bone Marrow Proliferative (BM) assay; type: cell-based; settings: mouse MLR and mouse bone marrow proliferation, 3H-thymidine incorporation
Description: Bone marrow cells from CBA mice (2.5×10^4 cells per well in flat bottom tissue culture microtiter plates) are incubated in 100 μl RPMI medium containing 10% FCS, 100 U/ml penicillin, 100 μg/ml streptomycin (Gibco BRL, Basel, Switzerland), 50 μM 2-mercaptoethanol (Fluka, Buchs, Switzerland), WEHI-3 conditioned medium (7.5% v/v) and L929 conditioned medium (3% v/v) as a source of growth factors and serially diluted compounds. Seven three-fold dilution steps in duplicates per test compound are performed. After four days of incubation 1 μCi ^3H-thymidine is added. Cells are harvested after an additional five-hour incubation period, and incorporated ^3H-thymidine is determined according to standard procedures. Conditioned media are prepared as follows. WEHI-3 cells (ATCC TIB68) and L929 cells (ATCC CCL 1) are grown in RPMI medium until confluence for 4 days and one week, respectively. […]
Briefly, spleen cells from CBA and BALB/c mice (1.6×10^5 cells from each strain per well in flat bottom tissue culture microtiter plates, 3.2×10^5 in total) are incubated in RPMI medium containing 10% FCS, 100 U/ml penicillin, 100 μg/ml streptomycin (Gibco BRL, Basel, Switzerland), 50 μM 2-mercaptoethanol (Fluka, Buchs, Switzerland) and serially diluted compounds. […] Cells are harvested after an additional five-hour incubation period, and incorporated ^3H-thymidine is determined according to standard procedures. […]

[2] = target: T1, Human recombinant PKCε (Homo sapiens, UniProt Q02156); assay: Protein Kinase Cε assay; type: biochemical; settings: selectivity ratio relative to PKCα
T1 construct: purchased Oxford Biomedical Research
T1 sequence (Q02156 1-737): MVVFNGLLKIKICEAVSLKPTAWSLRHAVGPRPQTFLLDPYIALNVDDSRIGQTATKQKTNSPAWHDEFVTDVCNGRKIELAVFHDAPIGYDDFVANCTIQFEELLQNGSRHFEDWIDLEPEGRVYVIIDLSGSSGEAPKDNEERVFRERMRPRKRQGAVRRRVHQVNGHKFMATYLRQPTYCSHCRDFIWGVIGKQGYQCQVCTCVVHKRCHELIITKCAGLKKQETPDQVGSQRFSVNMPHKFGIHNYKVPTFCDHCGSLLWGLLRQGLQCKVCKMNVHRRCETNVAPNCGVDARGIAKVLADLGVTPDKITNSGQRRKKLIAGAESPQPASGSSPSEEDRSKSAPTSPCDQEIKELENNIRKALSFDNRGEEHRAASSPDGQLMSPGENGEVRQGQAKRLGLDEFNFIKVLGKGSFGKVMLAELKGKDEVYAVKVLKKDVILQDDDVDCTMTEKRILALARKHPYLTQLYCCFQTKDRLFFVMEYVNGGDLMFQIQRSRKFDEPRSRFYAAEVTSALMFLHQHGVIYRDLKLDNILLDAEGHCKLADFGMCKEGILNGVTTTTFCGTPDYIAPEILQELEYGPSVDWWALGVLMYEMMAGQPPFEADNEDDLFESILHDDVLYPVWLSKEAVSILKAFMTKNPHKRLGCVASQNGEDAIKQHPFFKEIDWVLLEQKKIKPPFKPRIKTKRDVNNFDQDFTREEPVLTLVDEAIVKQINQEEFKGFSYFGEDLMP
Description: (§1) The compounds of the invention are tested for their activity on different PKC isoforms according to the following method. Assay is performed in a white with clear bottom 384-well microtiterplate with non-binding surface. The reaction mixture (25 μl) contains 1.5 μM of a tridecapeptide acceptor substrate that mimics the pseudo substrate sequence of PKC α with the Ala→Ser replacement, 10 μM ^33P-ATP, 10 mM Mg(NO3)2, 0.2 mM CaCl2, PKC at a protein concentration varying from 25 to 400 ng/ml (depending on the isotype used), lipid vesicles (containing 30 mol % phosphatidylserine, 5 mol % DAG and 65 mol % phosphatidylcholine) at a final lipid concentration of 0.5 mM, in 20 mM Tris-HCl buffer pH 7.4+0.1% BSA. Incubation is performed for 60 min at room temperature.
Human recombinant PKCε is obtained from Oxford Biomedical Research and is used under the assay conditions as described under Section A.1 above.

[3] = target: T2, Human recombinant PKCη (Homo sapiens, UniProt P24723); assay: Protein Kinase Cη assay; type: biochemical; settings: selectivity ratio relative to PKCα
T2 construct: purchased PanVera
T2 sequence (P24723 whole entry): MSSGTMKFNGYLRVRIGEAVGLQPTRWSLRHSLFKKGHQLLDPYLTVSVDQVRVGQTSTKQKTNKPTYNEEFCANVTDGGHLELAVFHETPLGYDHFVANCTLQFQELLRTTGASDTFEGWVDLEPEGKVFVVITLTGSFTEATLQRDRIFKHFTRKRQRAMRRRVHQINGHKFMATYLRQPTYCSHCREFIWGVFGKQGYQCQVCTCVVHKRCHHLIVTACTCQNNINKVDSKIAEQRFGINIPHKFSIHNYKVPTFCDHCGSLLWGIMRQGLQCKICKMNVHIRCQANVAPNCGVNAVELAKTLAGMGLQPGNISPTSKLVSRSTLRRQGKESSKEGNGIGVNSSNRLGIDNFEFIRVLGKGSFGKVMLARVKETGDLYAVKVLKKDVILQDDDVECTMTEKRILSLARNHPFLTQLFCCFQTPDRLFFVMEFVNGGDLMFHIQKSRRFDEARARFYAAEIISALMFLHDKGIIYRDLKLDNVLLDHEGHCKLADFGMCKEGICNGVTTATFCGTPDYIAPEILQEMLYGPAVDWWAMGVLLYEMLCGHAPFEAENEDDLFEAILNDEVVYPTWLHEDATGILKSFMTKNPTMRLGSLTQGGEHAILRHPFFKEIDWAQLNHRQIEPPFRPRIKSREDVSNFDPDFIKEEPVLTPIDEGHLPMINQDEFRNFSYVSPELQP
Description: as §1
Human recombinant PKCη is obtained from PanVera and is used under the assay conditions as described under Section A.1 above.

[4] = target: T3, Human recombinant PKCδ (Homo sapiens, UniProt Q05655); assay: Protein Kinase Cδ assay; type: biochemical; settings: selectivity ratio relative to PKCα
T3 construct: purchased Oxford Biomedical Research
T3 sequence (Q05655 whole entry): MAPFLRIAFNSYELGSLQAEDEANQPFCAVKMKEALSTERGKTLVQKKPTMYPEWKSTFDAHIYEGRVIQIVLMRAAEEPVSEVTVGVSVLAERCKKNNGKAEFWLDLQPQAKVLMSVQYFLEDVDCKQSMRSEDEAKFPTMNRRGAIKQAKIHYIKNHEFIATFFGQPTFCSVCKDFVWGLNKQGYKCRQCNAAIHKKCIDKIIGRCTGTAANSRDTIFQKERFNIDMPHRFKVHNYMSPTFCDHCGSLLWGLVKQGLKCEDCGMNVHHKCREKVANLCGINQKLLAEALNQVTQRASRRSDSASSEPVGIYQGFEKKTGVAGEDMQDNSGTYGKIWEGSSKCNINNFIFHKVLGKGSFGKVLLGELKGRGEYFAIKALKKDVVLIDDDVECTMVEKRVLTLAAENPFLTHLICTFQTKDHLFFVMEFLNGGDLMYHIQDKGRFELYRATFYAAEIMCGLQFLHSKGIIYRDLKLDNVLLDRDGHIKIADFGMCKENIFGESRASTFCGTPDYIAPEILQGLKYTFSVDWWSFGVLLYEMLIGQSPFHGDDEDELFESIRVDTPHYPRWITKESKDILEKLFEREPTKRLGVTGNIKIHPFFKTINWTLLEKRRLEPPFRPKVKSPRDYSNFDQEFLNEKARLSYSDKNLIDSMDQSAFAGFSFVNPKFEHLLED
Description: as §1
Human recombinant PKCδ is obtained from Oxford Biomedical Research and is used under the assay conditions as described under Section A.1 above.

[5] = target: T4, Human recombinant PKCβ1 (Homo sapiens, UniProt P05771); assay: Protein Kinase Cβ1 assay; type: biochemical; settings: selectivity ratio relative to PKCα
T4 construct: purchased Oxford Biomedical Research
T4 sequence (P05771 whole entry): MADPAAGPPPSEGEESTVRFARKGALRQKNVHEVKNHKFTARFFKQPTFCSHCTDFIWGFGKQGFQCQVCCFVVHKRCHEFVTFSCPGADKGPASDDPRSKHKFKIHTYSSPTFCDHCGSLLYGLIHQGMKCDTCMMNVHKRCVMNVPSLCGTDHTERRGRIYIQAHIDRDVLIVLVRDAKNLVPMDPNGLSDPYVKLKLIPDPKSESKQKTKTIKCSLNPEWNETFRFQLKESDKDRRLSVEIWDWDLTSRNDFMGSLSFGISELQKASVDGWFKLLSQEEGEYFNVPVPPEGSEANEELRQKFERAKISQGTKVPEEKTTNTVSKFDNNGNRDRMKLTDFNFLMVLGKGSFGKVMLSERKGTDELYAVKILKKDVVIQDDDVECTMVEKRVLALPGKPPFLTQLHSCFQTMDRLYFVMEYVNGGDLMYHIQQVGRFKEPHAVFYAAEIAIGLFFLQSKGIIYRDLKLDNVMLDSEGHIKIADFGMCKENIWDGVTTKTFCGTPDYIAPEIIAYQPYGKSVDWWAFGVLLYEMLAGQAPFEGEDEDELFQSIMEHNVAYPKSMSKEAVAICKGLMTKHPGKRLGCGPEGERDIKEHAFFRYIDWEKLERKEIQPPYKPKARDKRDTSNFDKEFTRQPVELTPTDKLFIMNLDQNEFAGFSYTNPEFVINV
Description: as §1
Human recombinant PKCβ1 is obtained from Oxford Biomedical Research and is used under the assay conditions as described under Section A.1 above.

[6] = target: Human recombinant PKCθ (Homo sapiens, UniProt Q04759); assay: Protein Kinase Cθ assay; type: biochemical; settings: selectivity ratio relative to PKCα
Sequence of Human recombinant PKCθ (Q04759 whole entry): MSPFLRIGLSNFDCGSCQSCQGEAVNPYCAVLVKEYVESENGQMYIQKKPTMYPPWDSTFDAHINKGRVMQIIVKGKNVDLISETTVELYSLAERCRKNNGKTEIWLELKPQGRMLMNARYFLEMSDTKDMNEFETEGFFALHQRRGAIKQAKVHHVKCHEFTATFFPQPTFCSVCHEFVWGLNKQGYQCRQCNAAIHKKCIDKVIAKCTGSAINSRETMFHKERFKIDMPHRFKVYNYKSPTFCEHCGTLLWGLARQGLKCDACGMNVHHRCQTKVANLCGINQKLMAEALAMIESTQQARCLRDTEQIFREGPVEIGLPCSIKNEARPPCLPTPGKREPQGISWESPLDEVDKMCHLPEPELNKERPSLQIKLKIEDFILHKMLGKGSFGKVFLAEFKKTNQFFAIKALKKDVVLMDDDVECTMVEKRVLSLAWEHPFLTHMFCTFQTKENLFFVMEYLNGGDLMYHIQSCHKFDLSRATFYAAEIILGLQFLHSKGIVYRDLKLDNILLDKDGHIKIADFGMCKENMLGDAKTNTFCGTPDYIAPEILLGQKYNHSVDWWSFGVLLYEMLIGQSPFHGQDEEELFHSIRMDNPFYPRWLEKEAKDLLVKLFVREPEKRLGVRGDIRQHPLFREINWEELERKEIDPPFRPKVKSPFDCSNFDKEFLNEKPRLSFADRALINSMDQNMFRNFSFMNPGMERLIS
Description: as §1
Human recombinant PKCθ is used under the assay conditions as described above.

Row | Structure (SMILES) | MLR/BM: ratio of the IC50 value as determined by the MLR assay to the IC50 value as determined by the BM assay [1] | ε/α: ratio of the IC50 value for PKC ε to the IC50 value for PKCα [2] | η/α: ratio of the IC50 value for PKC η to the IC50 value for PKCα [3] | δ/α: ratio of the IC50 value for PKC δ to the IC50 value for PKCα [4] | β/α: ratio of the IC50 value for PKC β to the IC50 value for PKCα [5] | θ/α: ratio of the IC50 value for PKC θ to the IC50 value for PKCα [6]
1 | CN(C)Cc1ccc2ccc(Cl)c(C3=C(c4cn(C)c5ccccc45)C(=O)NC3=O)c2c1 [Example 1, 3-(2-Chloro-7-dimethylaminomethyl-naphthalen-1-yl)-4-(1-methyl-1H-indol-3-yl)-pyrrole-2,5-dione] | 21.6 | 122.6 | 140.2 | 66.4 | 1.2 | 90.8
2 | Cn1c2ccccc2c2c3c(c4c5ccccc5n(CCC#N)c4c21)CNC3=O [Example 47, Gö 6976] | 2.1 | 45.8 | 118.7 | 120.5 | 5.3 | 222.3
